Results: US8153693B2, “Compounds for the selective treatment of the intestinal immuno-inflammatory component of the celiac disease” (Giuliani International Limited, priority 2007, dated 2012)

Columns and labels:
[1] = test system: IFN; assay: Cytokine assay (ELISA) in culture liquids of duodenal biopsy organ cultures, 5-ASA 1.5-8.0 mg per ml, 4 h to 72 h: IFN; format: cell-based, human; details: for IFN, PT + 5ASA C, Mean / IFN, PT + 5ASA C, Median: peptic-tryptic digest of gliadin (PT)
Experimental: (§1) 3 groups of subjects were evaluated. The first (atrophic) group included 29 subjects with serum tests positive to antiendomysium and anti-transglutaminase antibodies, with a neo-diagnosis of celiac disease and gluten-containing diet. The second (Remission) group included 17 celiac disease subjects in clinical remission and gluten-free diet for at least 6 months. The third (Healthy) group included subjects not suffering from the celiac disease but suffering from inflammation of the gastro-enteric tract. […] The biopsies were washed in saline for two minutes at least three times. […] Three different amounts of medium are shared for the ELISA assay of Th1 and Th2 cytokines released in culture media.

[2] = test system: IL-2; assay: Cytokine assay (ELISA) in culture liquids of duodenal biopsy organ cultures: IL-2; format: cell-based, human; details: for IL-2, PT + 5ASA C, Mean / IL-2, PT + 5ASA C, Median: peptic-tryptic digest of gliadin (PT)
Experimental: as §1

[3] = test system: TNF; assay: Cytokine assay (ELISA) in culture liquids of duodenal biopsy organ cultures: TNF; format: cell-based, human; details: for TNF, PT + 5ASA C, Mean / TNF, PT + 5ASA C, Median: peptic-tryptic digest of gliadin (PT)
Experimental: as §1

[4] = test system: IFN; assay: Cytokine assay (ELISA) from homogenate of cultured duodenal biopsies: IFN; format: cell-based, human; details: for IFN, PT + 5ASA O, Mean / IFN, PT + 5ASA O, Median: peptic-tryptic digest of gliadin (PT)
Experimental: (§2) The biopsies were washed in saline for two minutes at least three times. […] After an incubation time ranging from 4 h to 72 h, at a T of 37° C.: The bioptic fragment is washed three times in saline for two minutes The biopsies are homogenised by mechanical or chemical disintegration Centrifugation is carried out, the supernatant is collected and transferred in a 1.5 ml Eppendorf Fixed cytokines in the mucosal tissue are assayed by the Elisa assay.

[5] = test system: TNF; assay: Cytokine assay (ELISA) from homogenate of cultured duodenal biopsies: TNF; format: cell-based, human; details: for TNF, PT + 5ASA O, Mean / TNF, PT + 5ASA O, Median: peptic-tryptic digest of gliadin (PT)
Experimental: as §2

[6] = test system: IL-2; assay: Gene expression (mRNA) by RT-PCR in cultured duodenal biopsies of celiac patients: IL-2; format: cell-based, human; details: PT medium with 5-ASA versus PT medium, 37° C., 48 h; optical density of bands
[7] = test system: TFN-alpha; assay: Gene expression (mRNA) by RT-PCR in cultured duodenal biopsies of celiac patients: TFN-alpha; format: cell-based, human; details: PT medium with 5-ASA versus PT medium, 37° C., 48 h; optical density of bands
[8] = test system: IFN-gamma; assay: Gene expression (mRNA) by RT-PCR in cultured duodenal biopsies of celiac patients: IFN-gamma; format: cell-based, human; details: PT medium with 5-ASA versus PT medium, 37° C., 48 h; optical density of bands
[9] = biological target: T1, PPARγ (Homo sapiens, UniProt P37231); assay: PPARγ activation, PPRE luciferase reporter in transfected HT-29 STD cells (Example 7); format: cell-based; details: 30 mM, positive control
T1 construct: HT-29 STD cells were transiently transfected using the Effectene™ transfection reagent; endogenous in cells; host or cells: HT-29 STD (ATCC HTB-38)
T1 sequence (P37231 1-505): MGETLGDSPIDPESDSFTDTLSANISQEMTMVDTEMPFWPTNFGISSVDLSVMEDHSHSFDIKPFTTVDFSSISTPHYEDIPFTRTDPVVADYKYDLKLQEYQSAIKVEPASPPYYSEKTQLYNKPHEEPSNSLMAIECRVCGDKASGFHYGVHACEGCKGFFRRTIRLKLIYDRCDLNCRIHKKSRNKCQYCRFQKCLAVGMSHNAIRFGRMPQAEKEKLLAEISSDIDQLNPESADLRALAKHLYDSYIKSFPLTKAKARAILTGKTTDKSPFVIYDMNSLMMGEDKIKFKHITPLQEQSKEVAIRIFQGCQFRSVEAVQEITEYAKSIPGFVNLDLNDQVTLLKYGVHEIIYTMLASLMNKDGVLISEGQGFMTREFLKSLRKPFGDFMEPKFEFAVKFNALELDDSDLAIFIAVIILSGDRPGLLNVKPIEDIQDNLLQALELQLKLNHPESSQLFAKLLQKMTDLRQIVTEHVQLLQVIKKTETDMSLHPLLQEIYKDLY
Experimental: The colon carcinoma cell line HT-29 STD (ATCC HTB-38) was routinely grown in DMEM supplemented with 10% heat-FCS, and antibiotics.
HT-29 STD cells were transiently transfected using the Effectene™ transfection reagent (Qiagen™) according to instructions from the manufacturer. To test PPARγ activation, we performed transfection with 500 ng of a minimal promoter construct containing two copies of PPRE obtained from the cytochrome p450 4A (2XCYP). The renilla luciferase plasmid (0.1 μg/well) was also transfected as an internal control for monitoring transfection efficiency and for normalizing the firefly luciferase activity. Transfected cells were left for 24 hours incubation at 37° C. […] The pH of the drug solutions was adjusted to 7.4 with NaOH. Total cell extracts were prepared using the Passive Lysis Buffer (Promega™, Madison, Wis.). Luciferase activity was assayed in 20 μl of the extract using Promega's Dual Luciferase assay system according to manufacturer's protocol. Transfections were assayed in triplicate in at least three separate experiments. The luciferase activity was expressed as fold of the activity obtained in cells treated with the different molecules dividing by luciferase activity from non stimulated cells.
We investigated PPARγ transcriptional activity by transient transfections of epithelial cells with the renilla luciferase and PPRE plasmids. […]

[10] = Atrophic population, N 22, Wilcoxon p = 0.05
[11] = Atrophic population, N 22, Wilcoxon p = 0.08
[12] = Positive control population, N 7
[13] = Positive control population, N 7, Wilcoxon p = N.S.
[14] = Remission population, N 15, Wilcoxon p = 0.022
[15] = Remission population, N 15, Wilcoxon p = N.S.
[16] = Atrophic population, N 15, Wilcoxon p = 0.012
[17] = Atrophic population, N 15, Wilcoxon p = 0.03
[18] = Positive control population, N 7, Wilcoxon p = 0.07
[19] = Remission population, N 12, Wilcoxon p = N.S.
[20] = Atrophic population, N 21, Wilcoxon p = N.S.
[21] = Atrophic population, N 9, Wilcoxon p = 0.003
[22] = Atrophic population, N 9, Wilcoxon p = 0.019
[23] = Remission population, N 4, Wilcoxon p = N.S.
[24] = Atrophic population, N 11, Wilcoxon p = 0.002
[25] = Atrophic population, N 11, Wilcoxon p = N.S.
[26] = Remission population, N 5, Wilcoxon p = N.S.

Nc1ccc(O)c(C(=O)O)c1 [Compound 5ASA, mesalazine]
IFN, Difference PT C/PT + 5ASA C, Mean [1, 10]: 0.0657 | IFN, Difference PT C/PT + 5ASA C, Median [1, 10]: 0.0505 | IFN, Difference Medium C/Medium + 5ASA C, Mean [1, 11]: 0.0601 | IFN, Difference Medium C/Medium + 5ASA C, Median [1, 11]: 0.0260 | IFN, PT + 5ASA C, Mean ([1]; Atrophic population, N 22): 0.145 | IFN, PT + 5ASA C, Median ([1]; Atrophic population, N 22): 0.0545 | IFN, Medium + 5ASA C, Mean [1, 12]: 0.149 | IFN, Medium + 5ASA C, Median [1, 12]: 0.140 | IFN, Difference Medium C/Medium + 5ASA C, Mean [1, 13]: 0.004 | IFN, Difference Medium C/Medium + 5ASA C, Median [1, 13]: 0.029 | IFN, Difference PT C/PT + 5ASA C, Mean [1, 13]: 0.0247 | IFN, Difference PT C/PT + 5ASA C, Median [1, 13]: 0.0090 | IFN, PT + 5ASA C, Mean [1, 12]: 0.116 | IFN, PT + 5ASA C, Median [1, 12]: 0.121 | IFN, Medium + 5ASA C, Mean ([1]; Remission population, N 15): 0.201 | IFN, Medium + 5ASA C, Median ([1]; Remission population, N 15): 0.208 | IFN, Difference PT C/PT + 5ASA C, Mean [1, 14]: 0.101 | IFN, Difference PT C/PT + 5ASA C, Median [1, 14]: 0.0210 | IFN, Difference Medium C/Medium + 5ASA C, Mean [1, 15]: 0.0383 | IFN, Difference Medium C/Medium + 5ASA C, Median [1, 15]: 0.0500 | IFN, PT + 5ASA C, Mean ([1]; Remission population, N 15): 0.153 | IFN, PT + 5ASA C, Median ([1]; Remission population, N 15): 0.0960 | IL-2, Medium + 5ASA C, Mean ([2]; Atrophic population, N 15): 0.119 | IL-2, Medium + 5ASA C, Median ([2]; Atrophic population, N 15): 0.0910 | IL-2, Difference PT C/PT + 5ASA C, Mean [2, 16]: 0.0270 | IL-2, Difference PT C/PT + 5ASA C, Median [2, 16]: 0.0410 | IL-2, Difference Medium C/Medium + 5ASA C, Mean [2, 17]: 0.0559 | IL-2, Difference Medium C/Medium + 5ASA C, Median [2, 17]: 0.0490 | IL-2, PT + 5ASA C, Mean ([2]; Atrophic population, N 15): 0.124 | IL-2, PT + 5ASA C, Median ([2]; Atrophic population, N 15): 0.0770 | IL-2, Medium + 5ASA C, Mean [2, 12]: 0.356 | IL-2, Medium + 5ASA C, Median [2, 12]: 0.379 | IL-2, Difference Medium C/Medium + 5ASA C, Mean [2, 18]: 0.116 | IL-2, Difference Medium C/Medium + 5ASA C, Median [2, 18]: 0.247 | IL-2, Difference PT C/PT + 5ASA C, Mean [2, 13]: −0.020 | IL-2, Difference PT C/PT + 5ASA C, Median [2, 13]: 0.0210 | IL-2, PT + 5ASA C, Mean [2, 12]: 0.521 | IL-2, PT + 5ASA C, Median [2, 12]: 0.468 | IL-2, Medium + 5ASA C, Mean ([2]; Remission population, N 12): 0.309 | IL-2, Medium + 5ASA C, Median ([2]; Remission population, N 12): 0.253 | IL-2, Difference Medium C/Medium + 5ASA C, Mean [2, 19]: 0.0061 | IL-2, Difference Medium C/Medium + 5ASA C, Median [2, 19]: 5E−4 | IL-2, Difference PT C/PT + 5ASA C, Mean [2, 19]: 0.0365 | IL-2, Difference PT C/PT + 5ASA C, Median [2, 19]: 0.0260 | IL-2, PT + 5ASA C, Mean ([2]; Remission population, N 12): 0.234 | IL-2, PT + 5ASA C, Median ([2]; Remission population, N 12): 0.194 | TNF, Medium + 5ASA C, Mean ([3]; Atrophic population, N 21): 0.472 | TNF, Medium + 5ASA C, Median ([3]; Atrophic population, N 21): 0.204 | TNF, Difference PT C/PT + 5ASA C, Median ([3]; Atrophic population, N 21, Wilcoxon p < 0.0001): 0.0580 | TNF, Difference Medium C/Medium + 5ASA C, Mean [3, 20]: 0.0048 | TNF, Difference Medium C/Medium + 5ASA C, Median [3, 20]: 0.0150 | TNF, PT + 5ASA C, Mean ([3]; Atrophic population, N 21): 0.414 | TNF, PT + 5ASA C, Median ([3]; Atrophic population, N 21): 0.120 | TNF, Medium + 5ASA C, Mean [3, 12]: 0.259 | TNF, Medium + 5ASA C, Median [3, 12]: 0.229 | TNF, Difference Medium C/Medium + 5ASA C, Mean [3, 13]: 0.005 | TNF, Difference Medium C/Medium + 5ASA C, Median [3, 13]: 0.0040 | TNF, Difference PT C/PT + 5ASA C, Mean [3, 13]: 0.0226 | TNF, Difference PT C/PT + 5ASA C, Median [3, 13]: 0.0250 | TNF, PT + 5ASA C, Mean [3, 12]: 0.291 | TNF, Medium + 5ASA C, Mean ([3]; Remission population, N 15): 0.894 | TNF, Medium + 5ASA C, Median ([3]; Remission population, N 15): 0.571 | TNF, Difference PT C/PT + 5ASA C, Median ([3]; Remission population, N 15, Wilcoxon p = 0.005): 0.221 | TNF, Difference Medium C/Medium + 5ASA C, Mean [3, 15]: 0.0541 | TNF, Difference Medium C/Medium + 5ASA C, Median [3, 15]: 0.0790 | TNF, PT + 5ASA C, Mean ([3]; Remission population, N 15): 0.305 | TNF, PT + 5ASA C, Median ([3]; Remission population, N 15): 0.545 | IFN, Medium + 5ASA O, Mean ([4]; Atrophic population, N 9): 0.202 | IFN, Medium + 5ASA O, Median ([4]; Atrophic population, N 9): 0.193 | IFN, Difference Medium O/Medium + 5ASA O, Mean [4, 21]: 0.0951 | IFN, Difference Medium O/Medium + 5ASA O, Median [4, 21]: 0.0560 | IFN, Difference PT O/PT + 5ASA O, Mean [4, 22]: 0.0437 | IFN, Difference PT O/PT + 5ASA O, Median [4, 22]: 0.0380 | IFN, PT + 5ASA O, Mean ([4]; Atrophic population, N 9): 0.179 | IFN, PT + 5ASA O, Median ([4]; Atrophic population, N 9): 0.193 | IFN, Medium + 5ASA O, Mean ([4]; Remission population, N 4): 0.133 | IFN, Difference Medium O/Medium + 5ASA O, Mean [4, 23]: 0.120 | IFN, Difference PT O/PT + 5ASA O, Mean [4, 23]: 0.0230 | IFN, Difference PT O/PT + 5ASA O, Median [4, 23]: 0.0215 | IFN, PT + 5ASA O, Mean ([4]; Remission population, N 4): 0.177 | IFN, PT + 5ASA O, Median ([4]; Remission population, N 4): 0.161 | TNF, Medium + 5ASA O, Mean ([5]; Atrophic population, N 11): 0.123 | TNF, Difference PT O/PT + 5ASA O, Mean [5, 24]: 0.0554 | TNF, Difference PT O/PT + 5ASA O, Median [5, 24]: 0.0270 | TNF, Difference Medium O/Medium + 5ASA O, Mean [5, 25]: 0.0154 | TNF, Difference Medium O/Medium + 5ASA O, Median [5, 25]: 0.0100 | TNF, PT + 5ASA O, Mean ([5]; Atrophic population, N 11): 0.101 | TNF, PT + 5ASA O, Median ([5]; Atrophic population, N 11): 0.0980 | TNF, Medium + 5ASA O, Mean ([5]; Remission population, N 5): 0.122 | TNF, Difference Medium O/Medium + 5ASA O, Mean [5, 26]: −0.00 | TNF, Difference Medium O/Medium + 5ASA O, Median [5, 26]: 0.0050 | TNF, Difference PT O/PT + 5ASA O, Mean [5, 26]: 0.0194 | TNF, Difference PT O/PT + 5ASA O, Median [5, 26]: 0.0210 | TNF, PT + 5ASA O, Mean ([5]; Remission population, N 5): 0.107 | TNF, PT + 5ASA O, Median ([5]; Remission population, N 5): 0.110 | gene expression (mRNA) of IL-2 [6]: well reduced | gene expression (mRNA) of TFN-alpha [7]: well reduced | gene expression (mRNA) of IFN-gamma [8]: well reduced | increase of the reporter gene activity [9]: 2.8±0.7 fold
